Experimental data from EP0693481A1, “Prodrugs of 5,5-diphenylhydantoin as antiepileptic and antiarrhythmic agents” (LABORATORIOS RUBIO, S.A., priority 1994, dated 1996).
Where a name gives a salt, the structure may show the parent alone. Read-outs that look alike come from different tables or passages of the source.

Experiment: Hydrolisis rate of prodrug in whole rat blood (Franz-type cell, phenytoin measured by HPLC)
Type: in vitro ADME
Details: for hydrolisis (rate, in words): blood hydrolisis, summary statement on Tables 1 and 2; for metabolised at 0.5 min: time 0.50 min; for metabolised at 15 s: time 0.25 min; for metabolised at 0.25 h: time 15.00 min; for metabolised at 1 h: time 60.00 min; for metabolised at 2.45 h: time 147.00 min; for metabolised at 3.15 h: time 189.00 min; for metabolised at 10 s: time 0.17 min; for metabolised at 20 s: time 0.33 min; for metabolised at 0.025 h: time 1.5 min; for metabolised at 0.8 h: time 48.00 min
Method: To study the hydrolisis of prodrugs in blood, Franz-type permeation cells of the company Crown Glass Co. Somerville, N.Y. have been used. The receiving compartment is used which allows for water recirculation using a glass packet in order to keep the system at 37 °C. This compartment is equipped with magnetic stirring.
For the experiment, male Wistar albino rats weighing 200-275 g, bred and selected at the stabularium of the School of Pharmacy of Barcelona, were used. The animals were fasted for 20 hours before starting the trials, but they were given water ad libitum throughout this period. In order to avoid coprophagy, the animals were placed in cages with a broad wire netting bottom.
After anesthesizing the rat, blood was drawn by cardiac puncture. A known amount of blood (10 ml) containing a prodrug concentration of 40 µg/ml was introduced through the lateral tubes of the receiving compartment of Franz cells. The system was kept at 37 °C and stirred magnetically, samples were taken (1 ml) and phenytoin was measured in each of them by HPLC.
The analytical methods were validated prior to estimating phenytoin levels in blood samples.
As in the previous case, three replicates of the tested product were used.

[1] = rat, whole blood, whole rat blood, 37 °C, prodrug 40 µg/ml, mean of replicates, read-out: % HYDROLISIS IN WHOLE BLOOD, m ± s.d.
[2] = rat, whole blood, whole rat blood, 37 °C, prodrug 40 µg/ml, replicate 1, read-out: % HYDROLISIS IN WHOLE BLOOD
[3] = rat, whole blood, whole rat blood, 37 °C, prodrug 40 µg/ml, replicate 2, read-out: % HYDROLISIS IN WHOLE BLOOD
[4] = rat, whole blood, whole rat blood, 37 °C, prodrug 40 µg/ml, replicate 3, read-out: % HYDROLISIS IN WHOLE BLOOD
[5] = rat, whole blood, whole rat blood, 37 °C, mean of replicates, read-out: % HYDROLISIS IN WHOLE BLOOD, m ± s.d.
[6] = rat, whole blood, whole rat blood, 37 °C, replicate 1, read-out: % HYDROLISIS IN WHOLE BLOOD
[7] = rat, whole blood, whole rat blood, 37 °C, replicate 2, read-out: % HYDROLISIS IN WHOLE BLOOD
[8] = rat, whole blood, whole rat blood, 37 °C, replicate 3, read-out: % HYDROLISIS IN WHOLE BLOOD

O=C1NC(c2ccccc2)(c2ccccc2)C(=O)N1COP(=O)(O)O [XI, disodium salt of 5,5-diphenyl-3-(hydroxymethyl]hydantoin phosphoric ester]
hydrolisis (rate, in words): much more slower
metabolised at 0.5 min [1]: 8.47 ± 2.79%
metabolised at 0.5 min [2]: 6.37%
metabolised at 0.5 min [3]: 7.41%
metabolised at 0.5 min [4]: 11.7%
metabolised at 15 s [5]: 4.72 ± 1.84%
metabolised at 15 s [6]: 3.42%
metabolised at 15 s [7]: 6.03%
metabolised at 2 min [5]: 15.1 ± 7.72%
metabolised at 2 min [6]: 10.5%
metabolised at 2 min [7]: 10.8%
metabolised at 2 min [8]: 24%
metabolised at 7 min [5]: 33.2 ± 12.3%
metabolised at 7 min [6]: 21.4%
metabolised at 7 min [7]: 32%
metabolised at 7 min [8]: 46%
metabolised at 0.25 h [5]: 59.6 ± 29.8%
metabolised at 0.25 h [6]: 38.9%
metabolised at 0.25 h [7]: 46.1%
metabolised at 0.25 h [8]: 93.8%
metabolised at 1 h [5]: 77.7 ± 4.6%
metabolised at 1 h [6]: 74.5%
metabolised at 1 h [7]: 81%
metabolised at 2.45 h [5]: 81.31 ± 0.47%
metabolised at 2.45 h [6]: 81%
metabolised at 2.45 h [7]: 81.7%
metabolised at 3.15 h [5]: 88.5 ± 13.1%
metabolised at 3.15 h [6]: 79.3%
metabolised at 3.15 h [7]: 97.7%

CN1CCN(CC(=O)OCN2C(=O)NC(c3ccccc3)(c3ccccc3)C2=O)CC1 [IX, 5,5-diphenyl-3-[(4-methylpiperazinyl)-acetoxymethyl]hydantoin dihydrochloride]
hydrolisis (rate, in words): virtually instantaneous
metabolised at 10 s [1]: 100 ± 7.96%
metabolised at 10 s [2]: 99%
metabolised at 10 s [3]: 109%
metabolised at 10 s [4]: 93.1%
metabolised at 20 s [1]: 102 ± 20.8%
metabolised at 20 s [2]: 85.6%
metabolised at 20 s [3]: 95.8%
metabolised at 20 s [4]: 126%
metabolised at 0.5 min [1]: 102 ± 13.2%
metabolised at 0.5 min [2]: 92.7%
metabolised at 0.5 min [3]: 96.5%
metabolised at 0.5 min [4]: 117%
metabolised at 0.025 h [1]: 104 ± 7.14%
metabolised at 0.025 h [2]: 95.8%
metabolised at 0.025 h [3]: 108%
metabolised at 0.025 h [4]: 109%
metabolised at 5 min [1]: 109%
metabolised at 5 min [2]: 105%
metabolised at 5 min [3]: 117%
metabolised at 5 min [4]: 105%
metabolised at 16 min [1]: 115 ± 5.79%
metabolised at 16 min [3]: 119%
metabolised at 16 min [4]: 110%
metabolised at 0.8 h [1]: 100 ± 3.91%
metabolised at 0.8 h [2]: 97.2%
metabolised at 0.8 h [3]: 99.4%
metabolised at 0.8 h [4]: 105%
metabolised at 115 min (rat, whole blood, whole rat blood, 37 °C, prodrug 40 µg/ml, time 115.00 min, replicate 2): 99.7%
